Assay results: publication PMC11477294, “In Vitro Profiling of the Antiviral Peptide TAT-I24” (International Journal of Molecular Sciences, 2024)
Where a SMILES comes first, the peptide text is derived from it.

Test system: MCMV pM123/IE1 protein expression
Experiment: pM123/IE1 immunofluorescence in MCMV-infected NIH/3T3 cells
Assay type: cell-based, mouse cytomegalovirus
Settings: MCMV MOI 1, 6 h post-infection
Description: NIH/3T3 cells were seeded at a density of 2 × 10^4 cells/250 µL per well in ibiTreat 8-well chambers (ibidi, Gräfelfing, Germany) and allowed to attach overnight at 37 °C. On the next day, cells were treated with peptides and infected with MCMV at an MOI of 1 with the aid of centrifugal enhancement, twice at 800× g for 15 min. After 6 h of incubation at 37 °C, the supernatants were removed and cells were fixed with 5% formaldehyde for 1 h at room temperature, followed by permeabilization with 0.5% Triton X-100 (Sigma Aldrich, Schnelldorf, Germany) in PBS for 10 min at room temperature. Cells were then incubated with 3% bovine serum albumin (BSA; Sigma Aldrich, Schnelldorf, Germany) in PBS for one hour. After that, anti-m123/IE-1 antibody (clone IE1.01; Center for Proteomics, Rijeka, Croatia) was added at a 1:400 dilution in PBS + 1% BSA and slides were incubated overnight at 4 °C. On the next day, wells were washed twice with PBS. […]

With `CC(C)C[C@H](NC(=O)[C@H](CS)NC(=O)[C@H](CCC(N)=O)NC(=O)[C@@H]1CCCN1C(=O)[C@@H]1CCCN1C(=O)[C@H](CCCNC(=N)N)NC(=O)[C@H](CCCNC(=N)N)NC(=O)[C@H](CCCNC(=N)N)NC(=O)[C@H](CCC(N)=O)NC(=O)[C@H](CCCNC(=N)N)NC(=O)[C@H](CCCNC(=N)N)NC(=O)[C@H](CCCCN)NC(=O)[C@H](CCCCN)NC(=O)[C@H](CCCNC(=N)N)NC(=O)CN)C(=O)N[C@@H](C)C(=O)N[C@@H](Cc1ccccc1)C(=O)N[C@@H](Cc1ccc(O)cc1)C(=O)N[C@@H](C)C(=O)N[C@@H](CS)C(=O)N[C@@H](Cc1ccccc1)C(=O)N[C@@H](CS)C(=O)O` [TAT-I24] (H-GRKKRRQRRRPPQCLAFYACFC-OH) the “number of pM123/IE1-positive cells” value (1 µM peptide) was “clearly reduced” and the “number of pM123/IE1-positive cells” value (10 µM peptide) was “clearly reduced”.
